Measured values taken from article PMC5697638, “Identification of a Potent Phosphoinositide 3‐Kinase Pan Inhibitor Displaying a Strategic Carboxylic Acid Group and Development of Its Prodrugs” (Chemmedchem, 2017).

Target: T1, hPI3K‐c2γ (PIK3C2G) (Homo sapiens, UniProt O75747)
T1 construct: purchased ProQinase, Germany 1207‐0000‐1
T1 sequence (O75747 1-1486): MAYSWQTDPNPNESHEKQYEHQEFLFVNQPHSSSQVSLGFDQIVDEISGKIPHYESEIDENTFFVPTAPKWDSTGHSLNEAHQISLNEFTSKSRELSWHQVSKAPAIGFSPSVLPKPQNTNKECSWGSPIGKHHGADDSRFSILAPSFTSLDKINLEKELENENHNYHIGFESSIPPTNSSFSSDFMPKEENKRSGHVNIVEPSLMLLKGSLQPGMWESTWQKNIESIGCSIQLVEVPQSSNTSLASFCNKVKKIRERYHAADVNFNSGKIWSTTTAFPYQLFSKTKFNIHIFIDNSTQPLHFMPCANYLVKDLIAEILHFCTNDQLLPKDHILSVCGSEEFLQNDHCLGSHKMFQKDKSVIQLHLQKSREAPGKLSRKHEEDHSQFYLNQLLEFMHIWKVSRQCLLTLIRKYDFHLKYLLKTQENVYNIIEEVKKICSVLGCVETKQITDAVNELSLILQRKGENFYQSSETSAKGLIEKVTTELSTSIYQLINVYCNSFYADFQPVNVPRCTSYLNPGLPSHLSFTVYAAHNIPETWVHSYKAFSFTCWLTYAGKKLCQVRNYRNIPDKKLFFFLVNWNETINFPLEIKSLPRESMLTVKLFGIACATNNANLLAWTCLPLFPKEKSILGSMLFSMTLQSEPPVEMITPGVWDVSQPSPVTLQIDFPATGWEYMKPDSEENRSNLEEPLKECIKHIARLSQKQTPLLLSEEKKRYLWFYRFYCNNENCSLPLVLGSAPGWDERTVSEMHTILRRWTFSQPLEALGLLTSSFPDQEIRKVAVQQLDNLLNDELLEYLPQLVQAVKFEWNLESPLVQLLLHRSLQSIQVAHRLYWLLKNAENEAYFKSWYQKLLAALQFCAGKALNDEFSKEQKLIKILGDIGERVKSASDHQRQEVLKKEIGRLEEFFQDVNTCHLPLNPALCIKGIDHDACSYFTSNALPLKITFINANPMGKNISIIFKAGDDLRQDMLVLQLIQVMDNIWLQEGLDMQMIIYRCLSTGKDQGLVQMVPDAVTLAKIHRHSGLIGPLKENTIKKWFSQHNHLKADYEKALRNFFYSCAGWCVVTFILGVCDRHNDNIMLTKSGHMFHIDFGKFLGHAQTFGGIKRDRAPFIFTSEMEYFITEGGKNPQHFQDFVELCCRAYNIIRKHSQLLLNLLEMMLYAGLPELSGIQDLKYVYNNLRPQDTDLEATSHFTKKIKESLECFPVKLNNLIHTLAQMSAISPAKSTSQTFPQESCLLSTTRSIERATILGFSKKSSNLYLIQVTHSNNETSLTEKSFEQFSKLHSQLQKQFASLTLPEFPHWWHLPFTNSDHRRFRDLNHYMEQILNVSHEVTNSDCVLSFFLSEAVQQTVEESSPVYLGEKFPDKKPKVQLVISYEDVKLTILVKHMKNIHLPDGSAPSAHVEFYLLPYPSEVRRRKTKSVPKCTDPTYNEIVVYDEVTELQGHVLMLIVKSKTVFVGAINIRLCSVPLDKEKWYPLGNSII
Test: lipid kinase assay (ADP-Glo), PI3K-C2γ
Type: biochemical
Conditions: Table 2; mean of at least three determinations, 95 % confidence intervals; read-out: IC50 PI3Kc2γ
Description: In vitro selection, lipid kinase assay: To determine the inhibitory activity of the new molecular entities on PI3K enzyme, a lipid kinase assay was performed: recombinant proteins (30 ng), human PI3Kα (PIK3CA/PIK3R1, #1161‐1165‐1 ProQinase–Germany), hPI3Kβ (PIK3CB wt/PIK3R1, #1168‐1165‐1 ProQinase, Germany), hPI3Kγ (PIK3CG, #1163‐0000‐1 ProQinase, Germany), hPI3Kδ (PIK3CD/PIK3R1, #1162–1165‐1 ProQinase, Germany), hPI3K‐C2α (PIK3C2A, #14‐906 Merck Millipore_Merck KGaA, Germany), hPI3K‐C2β (PIK3C2B, #14‐907 Merck Millipore_Merck KGaA, Germany), hPI3K‐c2γ (PIK3C2G, #1207‐0000‐1 ProQinase, Germany), and hVps34 (PIK3C3, #1160‐0000‐1 ProQinase, Germany), were incubated in kinase buffer {12.5 μL; 20 mM Tris‐HCl pH 7.5, 10 mM MgCl2, 10 μM ATP, 0.05 mg mL^−1 BSA, 0.5 mM EDTA, 5 mM HEPES pH 7.5, for PI3Kα,PI3Kβ, PI3Kγ, PI3Kδ, PI3KC‐2α, and PI3KC‐2γ; 15 mM MnCl2, 5 mM EGTA, 100 μM ATP, 50 mM HEPES pH 7.5, 100 mM NaCl, and 0.03 % CHAPS for PI3K‐C2β and VPS34 {BSA=bovine serum albumin; EDTA=ethylenediaminetetraacetic acid; HEPES=4‐(2‐hydroxyethyl)‐1‐piperazineethanesulfonic acid; EGTA=ethylene glycol‐bis(2‐aminoethylether)‐N,N,N′,N′‐tetraacetic acid; CHAPS=3‐[(3‐cholamidopropyl)dimethylammonio]‐1‐propanesulfonate}. In the reaction, the ATP concentration used for different PI3Ks was defined on the basis of the Michaelis–Menten kinetics of each enzyme, provided by the supplier. […]

O=C(O)c1cccc(Cn2cc(-c3cccc4c(=O)cc(N5CCOCC5)[nH]c34)nn2)c1 [Compound 37, 3‐{[4‐(2‐Morpholino‐4‐oxo‐1,4‐dihydroquinolin‐8‐yl)‐1H‐1,2,3‐triazol‐1‐yl]methyl}benzoic acid]
IC50: 2800 ± 700 nM
